Measured values from ChEMBL document CHEMBL1142788, “Synthesis and antibacterial activity of alkyl derivatives of the glycopeptide antibiotic A40926 and their amides” (2005).
In brackets after ≈: the same amount, converted by molar mass.

Legend:
[1] = system: Staphylococcus haemolyticus; test: Minimum inhibitory concentration against Staphylococcus haemolyticus in the presence of 30% bovine serum; assay type: functional
[2] = system: Enterococcus faecalis; test: Minimum inhibitory concentration against vancomycin-A Enterococcus faecalis in the presence of 30% bovine serum(n=4) (range = 0.125-16mg/L); assay type: functional
[3] = system: Enterococcus faecium; test: Minimum inhibitory concentration against vancomycin-sensitive Enterococcus faecium in the presence of 30% bovine serum(n=1); assay type: functional
[4] = system: Enterococcus faecalis; test: Minimum inhibitory concentration against vancomycin-sensitive Enterococcus faecalis in the presence of 30% bovine serum(n=3)(range = 8-4); assay type: functional
[5] = system: Staphylococcus aureus; test: Minimum inhibitory concentration against methicillin-sensitive Staphylococcus aureus
[6] = system: Staphylococcus epidermidis; test: Minimum inhibitory concentration against methicillin-sensitive Staphylococcus epidermidis in the presence of 30% bovine serum; assay type: functional
[7] = system: Enterococcus faecium; test: Minimum inhibitory concentration against vancomycin-A Enterococcus faecium in the presence of 30% bovine serum (n=1); assay type: functional
[8] = system: Staphylococcus epidermidis; test: Minimum inhibitory concentration against methicillin-resistant Staphylococcus epidermidis in the presence of 30% bovine serum; assay type: functional
[9] = system: Enterococcus faecium; test: Minimum inhibitory concentration against vancomycin-A Enterococcus faecium in the presence of 30% bovine serum (n=1) (range = 2>128); assay type: functional
[10] = system: Enterococcus faecalis; test: Minimum inhibitory concentration against vancomycin-A Enterococcus faecalis (n=4) (Range = 1 - 8 mg/L)
[11] = system: Enterococcus faecalis; test: Minimum inhibitory concentration against vancomycin-sensitive Enterococcus faecalis in the presence of 30% bovine serum(n=3)(range = 0.125-0.5mg/l); assay type: functional
[12] = system: Staphylococcus aureus; test: Minimum inhibitory concentration against methicillin-sensitive Staphylococcus aureus without serum
[13] = system: Staphylococcus aureus; test: Minimum inhibitory concentration against methicillin-resistant Staphylococcus aureus
[14] = system: Enterococcus faecium; test: Minimum inhibitory concentration against vancomycin-sensitive Enterococcus faecium in the presence of 30% bovine serum(n=1) (range = 1-8 mg/l); assay type: functional
[15] = system: Enterococcus faecalis; test: Minimum inhibitory concentration against vancomycin-sensitive Enterococcus faecalis in the presence of 30% bovine serum(n=3)(range = 1-2mg/l); assay type: functional
[16] = system: Enterococcus faecium; test: Minimum inhibitory concentration against vancomycin-A Enterococcus faecium in the presence of 30% bovine serum (n=1) (range = 64>128mg/L); assay type: functional
[17] = system: Enterococcus faecalis; test: Minimum inhibitory concentration against vancomycin-A Enterococcus faecalis in the presence of 30% bovine serum(n=4) (128 >128mg/L); assay type: functional
[18] = system: Enterococcus faecium; test: Minimum inhibitory concentration against vancomycin-A Enterococcus faecium in the presence of 30% bovine serum (n=1) (128>128mg/L); assay type: functional
[19] = system: Enterococcus faecalis; test: Minimum inhibitory concentration against vancomycin-A Enterococcus faecalis in the presence of 30% bovine serum (n=4); assay type: functional
[20] = system: Enterococcus faecalis; test: Minimum inhibitory concentration against vancomycin-sensitive Enterococcus faecalis in the presence of 30% bovine serum(n=3)(range = >=0.125-0.25mg/l); assay type: functional
[21] = system: Enterococcus faecium; test: Minimum inhibitory concentration against vancomycin-A Enterococcus faecium in the presence of 30% bovine serum (n=1) (range = 4>128mg/L); assay type: functional
[22] = system: Enterococcus faecalis; test: Minimum inhibitory concentration against vancomycin-A Enterococcus faecalis in the presence of 30% bovine serum (n=4) (range = 1-16mg/L); assay type: functional
[23] = system: Enterococcus faecalis; test: Minimum inhibitory concentration against vancomycin-sensitive Enterococcus faecalis in the presence of 30% bovine serum (n=3) (range = 0.25-0.5mg/l); assay type: functional
[24] = system: Enterococcus faecium; test: Minimum inhibitory concentration against vancomycin-A Enterococcus faecium in the presence of 30% bovine serum (n=1) (range = 0.125-16mg/l); assay type: functional
[25] = system: Enterococcus faecalis; test: Minimum inhibitory concentration against vancomycin-sensitive Enterococcus faecalis in the presence of 30% bovine serum (n=3); assay type: functional
[26] = system: Enterococcus faecalis; test: Minimum inhibitory concentration against vancomycin-A Enterococcus faecalis (n=4) (range = 0.25-8mg/L)
[27] = system: Enterococcus faecalis; test: Minimum inhibitory concentration against vancomycin-sensitive Enterococcus faecalis in the presence of 30% bovine serum(n=3)(range = 0.125-0.25mg/l); assay type: functional
[28] = system: Enterococcus faecalis; test: Minimum inhibitory concentration against vancomycin-A Enterococcus faecalis in the presence of 30% bovine serum (n=4) (range = 8-64mg/L); assay type: functional
[29] = system: Enterococcus faecium; test: Minimum inhibitory concentration against vancomycin-A Enterococcus faecium in the presence of 30% bovine serum (n=1) (range = 32>128mg/L); assay type: functional
[30] = system: Enterococcus faecalis; test: Minimum inhibitory concentration against vancomycin-A Enterococcus faecalis in the presence of 30% bovine serum (n=4) (Range = 0.125 - 16 mg/L); assay type: functional
[31] = system: Enterococcus faecium; test: Minimum inhibitory concentration against vancomycin-A Enterococcus faecium in the presence of 30% bovine serum (n=1) (range = 816 mg/L); assay type: functional
[32] = system: Enterococcus faecalis; test: Minimum inhibitory concentration against vancomycin-A Enterococcus faecalis in the presence of 30% bovine serum(n=4) (range = 1-16mg/L); assay type: functional
[33] = system: Enterococcus faecium; test: Minimum inhibitory concentration against vancomycin-A Enterococcus faecium in the presence of 30% bovine serum (n=1) (range = 2-32mg/l); assay type: functional

| SMILES | MIC [1] [µg/mL] | MIC [3] [µg/mL] | MIC [5] [µg/mL] | MIC [6] [µg/mL] | MIC [8] [µg/mL] | MIC [13] [µg/mL] | MIC [25] [µg/mL] | also measured |
| --- | --- | --- | --- | --- | --- | --- | --- | --- |
| CCCCC(CC)Oc1ccc(CNC2[C@H](Oc3c4cc5cc3Oc3ccc(cc3Cl)[C@@H](O)C3NC(=O)[C@H](NC(=O)[C@@H]5NC(=O)[C@H]5NC(=O)[C@@H](Cc6ccc(cc6)O4)NC(=O)[C@H](NC)c4ccc(O)c(c4)Oc4cc(O)c(Cl)c5c4)c4ccc(O)c(c4)-c4c(O[C@H]5O[C@H](CO)[C@@H](O)[C@H](O)[C@@H]5O)cc(O)cc4[C@@H](C(=O)NCCCN(C)C)NC3=O)OC(C(=O)NCCCN(C)C)C(O)[C@@H]2O)cc1 (stereo partly specified) | 4 | < 0.125 | < 0.125 | < 0.125 | – | – | – | MIC [2]: < 16 µg/mL; MIC [4]: < 0.125 µg/mL; MIC [7]: 16 µg/mL |
| CCCCOc1ccc(CNC2[C@H](Oc3c4cc5cc3Oc3ccc(cc3Cl)[C@@H](O)C3NC(=O)[C@H](NC(=O)[C@@H]5NC(=O)[C@H]5NC(=O)[C@@H](Cc6ccc(cc6)O4)NC(=O)[C@H](N(C)Cc4ccc(OCCCC)cc4)c4ccc(O)c(c4)Oc4cc(O)c(Cl)c5c4)c4ccc(O)c(c4)-c4c(O[C@H]5O[C@H](CO)[C@@H](O)[C@H](O)[C@@H]5O)cc(O)cc4[C@@H](C(=O)O)NC3=O)OC(C(=O)O)C(O)[C@@H]2O)cc1 (stereo partly specified) | 32 | – | – | 2 | 8 | 1 (≈ 0.533 µM) | – | MIC [9]: > 128 µg/mL; MIC [10]: 8 µg/mL (≈ 4.27 µM); MIC [11]: 0.5 µg/mL; MIC [12]: 2 µg/mL (≈ 1.07 µM); MIC [14]: 2 µg/mL |
| CCCCOc1ccc(CN(C)[C@H]2C(=O)N[C@@H]3Cc4ccc(cc4)Oc4cc5cc(c4O[C@@H]4OC(C(=O)O)C(O)[C@H](O)C4N)Oc4ccc(cc4Cl)[C@@H](O)C4NC(=O)[C@H](NC(=O)[C@@H]5NC(=O)[C@@H](NC3=O)c3cc(cc(O)c3Cl)Oc3cc2ccc3O)c2ccc(O)c(c2)-c2c(O[C@H]3O[C@H](CO)[C@@H](O)[C@H](O)[C@@H]3O)cc(O)cc2[C@@H](C(=O)O)NC4=O)cc1 (stereo partly specified) | > 128 | 2 | 4 (≈ 2.34 µM) | 32 | 128 | 2 (≈ 1.17 µM) | – | MIC [15]: 2 µg/mL; MIC [16]: > 128 µg/mL; MIC [17]: 128 µg/mL |
| CCCCCCC(CCCC)CNC1[C@H](Oc2c3cc4cc2Oc2ccc(cc2Cl)[C@@H](O)C2NC(=O)[C@H](NC(=O)[C@@H]4NC(=O)[C@H]4NC(=O)[C@@H](Cc5ccc(cc5)O3)NC(=O)[C@H](NC)c3ccc(O)c(c3)Oc3cc(O)c(Cl)c4c3)c3ccc(O)c(c3)-c3c(O[C@H]4O[C@H](CO)[C@@H](O)[C@H](O)[C@@H]4O)cc(O)cc3[C@@H](C(=O)O)NC2=O)OC(C(=O)O)C(O)[C@@H]1O (stereo partly specified) | 32 | 1 | 4 (≈ 2.33 µM) | 2 | 32 | 2 (≈ 1.16 µM) | – | MIC [18]: > 128 µg/mL; MIC [19]: > 128 µg/mL; MIC [20]: ≤ 0.125 µg/mL |
| CN(Cc1ccc(-c2ccccc2)cc1)[C@H]1C(=O)N[C@@H]2Cc3ccc(cc3)Oc3cc4cc(c3O[C@@H]3OC(C(=O)O)C(O)[C@H](O)C3NCc3ccc(-c5ccccc5)cc3)Oc3ccc(cc3Cl)[C@@H](O)C3NC(=O)[C@H](NC(=O)[C@@H]4NC(=O)[C@@H](NC2=O)c2cc(cc(O)c2Cl)Oc2cc1ccc2O)c1ccc(O)c(c1)-c1c(O[C@H]2O[C@H](CO)[C@@H](O)[C@H](O)[C@@H]2O)cc(O)cc1[C@@H](C(=O)O)NC3=O (stereo partly specified) | 64 | 0.5 | 0.5 (≈ 0.266 µM) | 0.5 | 4 | 0.5 (≈ 0.266 µM) | – | MIC [21]: > 128 µg/mL; MIC [22]: 16 µg/mL; MIC [23]: 0.5 µg/mL |
| CCCCOc1ccc(CNC2[C@H](Oc3c4cc5cc3Oc3ccc(cc3Cl)[C@@H](O)C3NC(=O)[C@H](NC(=O)[C@@H]5NC(=O)[C@H]5NC(=O)[C@@H](Cc6ccc(cc6)O4)NC(=O)[C@H](N(C)Cc4ccc(OCCCC)cc4)c4ccc(O)c(c4)Oc4cc(O)c(Cl)c5c4)c4ccc(O)c(c4)-c4c(O[C@H]5O[C@H](CO)[C@@H](O)[C@H](O)[C@@H]5O)cc(O)cc4[C@@H](C(=O)NCCCN(C)C)NC3=O)OC(C(=O)NCCCN(C)C)C(O)[C@@H]2O)cc1 (stereo partly specified) | 1 | 0.125 | 0.25 (≈ 0.122 µM) | < 0.125 | 0.5 | 1 (≈ 0.489 µM) | < 0.125 | MIC [24]: > 16 µg/mL; MIC [26]: 8 µg/mL (≈ 3.92 µM) |
| CCCCCCCCOc1ccc(CNC2[C@H](Oc3c4cc5cc3Oc3ccc(cc3Cl)[C@@H](O)C3NC(=O)[C@H](NC(=O)[C@@H]5NC(=O)[C@H]5NC(=O)[C@@H](Cc6ccc(cc6)O4)NC(=O)[C@H](NC)c4ccc(O)c(c4)Oc4cc(O)c(Cl)c5c4)c4ccc(O)c(c4)-c4c(O[C@H]5O[C@H](CO)[C@@H](O)[C@H](O)[C@@H]5O)cc(O)cc4[C@@H](C(=O)O)NC3=O)OC(C(=O)O)C(O)[C@@H]2O)cc1 (stereo partly specified) | 16 | 0.5 | 2 (≈ 1.13 µM) | 16 | – | 1 (≈ 0.565 µM) | – | MIC [27]: 0.125 µg/mL; MIC [28]: 64 µg/mL; MIC [29]: > 128 µg/mL |
| CCCCCCOc1ccc(CNC2[C@H](Oc3c4cc5cc3Oc3ccc(cc3Cl)[C@@H](O)C3NC(=O)[C@H](NC(=O)[C@@H]5NC(=O)[C@H]5NC(=O)[C@@H](Cc6ccc(cc6)O4)NC(=O)[C@H](NC)c4ccc(O)c(c4)Oc4cc(O)c(Cl)c5c4)c4ccc(O)c(c4)-c4c(O[C@H]5O[C@H](CO)[C@@H](O)[C@H](O)[C@@H]5O)cc(O)cc4[C@@H](C(=O)NCCCN(C)C)NC3=O)OC(C(=O)NCCCN(C)C)C(O)[C@@H]2O)cc1 (stereo partly specified) | 16 | < 0.125 | > 0.125 | < 0.125 | – | – | < 0.125 | MIC [30]: 16 µg/mL; MIC [31]: > 16 µg/mL |
| CN(C)CCCNC(=O)C1O[C@@H](Oc2c3cc4cc2Oc2ccc(cc2Cl)[C@@H](O)C2NC(=O)[C@H](NC(=O)[C@@H]4NC(=O)[C@H]4NC(=O)[C@@H](Cc5ccc(cc5)O3)NC(=O)[C@H](N(C)Cc3ccc(-c5ccccc5)cc3)c3ccc(O)c(c3)Oc3cc(O)c(Cl)c4c3)c3ccc(O)c(c3)-c3c(O[C@H]4O[C@H](CO)[C@@H](O)[C@H](O)[C@@H]4O)cc(O)cc3[C@@H](C(=O)NCCCN(C)C)NC2=O)C(NCc2ccc(-c3ccccc3)cc2)[C@@H](O)C1O (stereo partly specified) | 2 | 0.5 | 1 (≈ 0.488 µM) | 0.25 | 1 | 1 (≈ 0.488 µM) | 0.25 | MIC [32]: 4 µg/mL; MIC [33]: 32 µg/mL |
